Test results as given in patent publication US4425356A, “Lankacidin derivatives used in swine husbandry” (Takeda Chemical Industries, Ltd., priority 1980, dated 1984).
Several values for one entry are separate records, joined by “and”; a condition that tells them apart may be missing. Identical values can stand only once. Entries after “also recorded” stand apart in the source; their conditions may differ.

System: Treponema hyodysenteriae 78/A strain
Test: efficacy against swine dysentery under experimental infection conditions in pigs (drug in feed), Test Examples 5-7
Type: in vivo, Landrace pigs
Conditions: for Number of days on which diarrhea was observed / Number of days on which mucous bloody stool was observed / Number of pigs showing signs of infection/number of pigs used: 21-day test period; for Body weight gain / Feed conversion / Feed intake: 21 day period; for Body weight gain / Feed conversion / Feed intake / Body weight at the time of completion of test: mean per head; for effect against swine dysentery (in words): pig, in vivo
Experimental: Lankacidin C was tested for efficacy against swine dysentery under experimental infection conditions. Thus, twelve 6-week-old Landrace pigs (4 per group) were used. The test drug was admixed to a concentration of 100 ppm with the domestically formulated starter feed for young pigs without antibiotics. The animals were provided with the ration ad libitum. Infection of the pigs was effected by direct intragastrical administration to the SPF pigs of an inoculum prepared by preliminary anaerobic cultivation of the Treponema hyodysenteriae 78/A strain on a 5% horse blood added agar plate, mashing together with the culture medium and admixing with 5% mucin added phosphate buffer. Colonic contents and mucosa were collected from pigs which developed typical signs of swine dysentery, and diluted two-fold with 5% mucin added phosphate buffer. The dilution was used as the final inoculum, and 100 ml of the dilution was directly injected into the stomach of test pigs at the age of 7 weeks (fasted for 24 hours before infection). The pigs were fed for 21 days following infection.
The data are each the mean value per head for the 21day period from
infection to autopsy. Different alphabetic letters on the same line
indicate that there is a significant difference between the data to which
they are attached (P <0.05).
Lankacidin C was tested at concentrations in feed of 100 ppm and lower by the same method as in Test Example 5, with carbadox, a commonly used anti-swine-dysentery agent, for comparison.
The anti-swine-dysentery effects of 10 ppm each of lankacidin A and lankacidin C 14-propionate were examined by the procedure of Test Example 6.

SMILES | Number of pigs from which the pathogen was detected, in colonic mucosa (10 ppm in feed) | Number of pigs from which the pathogen was detected, in feces (10 ppm in feed) | Number of pigs showing colonic lesions (10 ppm in feed) | Number of days on which diarrhea was observed (10 ppm in feed) [days] | Number of days on which mucous bloody stool was observed (10 ppm in feed) [days] | Number of pigs showing signs of infection/number of pigs used (10 ppm in feed) | Body weight gain (10 ppm in feed) [grams/day] | Feed conversion (10 ppm in feed) | Feed intake (10 ppm in feed) [kg] | Body weight at the time of completion of test (10 ppm in feed) [kg] | effect against swine dysentery (in words) | other results
CC(=O)OC1C=CC(C)=CCC(O)C=CC(C)=CC(NC(=O)C(C)=O)C2(C)C(=O)OC(C1)C(C)C2=O (stereo not drawn) [Lankacidin A, lankacidin A] | 0 | 0 | 0 | 0 | 0 | 0/4 | 567 | 1.76 | 21.0 | 22.9 | distinctly effective against swine dysentery | 
CC(=O)C(=O)NC1C=C(C)C=CC(O)CC=C(C)C=CC(O)CC2OC(=O)C1(C)C(=O)C2C (stereo not drawn) [Lankacidin C, lankacidin C] | 0 | 0 | 0 | 0 | 0 | 0/4 | 484 | 1.81 | 18.4 | 20.7 | excellent effect against swine dysentery; also recorded: more excellent anti-swine-dysentery agent than carbadox | Number of pigs from which the pathogen was detected, in colonic mucosa (50 ppm in feed): 0; Number of pigs from which the pathogen was detected, in feces (50 ppm in feed): 0; Number of pigs showing colonic lesions (50 ppm in feed): 0; Number of days on which diarrhea was observed (50 ppm in feed): 0 days; Number of days on which mucous bloody stool was observed (50 ppm in feed): 0 days; Number of pigs showing signs of infection/number of pigs used (50 ppm in feed): 0/4; Body weight gain (50 ppm in feed): 673 grams/day; Feed conversion (50 ppm in feed): 1.79; Feed intake (50 ppm in feed): 25.3 kg; Body weight at the time of completion of test (50 ppm in feed): 25.3 kg; Number of pigs from which the pathogen was detected, in colonic mucosa (100 ppm in feed): 0; Number of pigs from which the pathogen was detected, in feces (100 ppm in feed): 0; Number of pigs showing colonic lesions (100 ppm in feed): 0; Number of days on which diarrhea was observed (100 ppm in feed): 0 days; Number of days on which mucous bloody stool was observed (100 ppm in feed): 0 days; Number of pigs showing signs of infection/number of pigs used (100 ppm in feed): 0/4; Body weight gain (100 ppm in feed): 708 grams/day and 689 grams/day; Feed conversion (100 ppm in feed): 1.85 and 1.77; Feed intake (100 ppm in feed): 27.5 kg and 25.6 kg; Body weight at the time of completion of test (100 ppm in feed): 28.5 kg and 25.5 kg
